Results on 25 compounds are retold here after patent US20240294489A1 (Captor Therapeutics S.A., priority 2020, published 2024).

Common to all, as to assay type: cell-based
In test [1] the test system is H929 cells. Put plainly: Cell viability CTG assay, H929. The settings on record: H929, 72 h, 0.001-50 μM; for IC50: Homo sapiens, NCI-H929, numeric values, read-out: Geomean absolute IC50 by molecule, 72 H. Set-up: key to Geomean absolute IC50 by molecule, 72 H: Inactive represents IC50 > 50 μM; C represents 50 μM ≥ IC50 > 5 μM. Here is the method: (§1) The effect of various compounds of the invention and various reference compounds on cell viability in various cell lines was investigated, using the Cell Viability—CTG Assay Protocol below. Hep3B, Kelly, H929, KG-1 and SNU-398 cells were maintained in respective cell medium (see Table 8, below). The cells were seeded on the 96-well or 384-white plates, and the compounds to be tested were added at the desired concentration range. Compounds are diluted in DMSO, and the DMSO concentration is kept constant at 0.25% v/v across the assay plate. After 72 h incubation (37° C., 5% CO2), CellTiter-Glo® Reagent (Promega/G7570) was added to the wells. Plates are shaken for 4 minutes and incubated for 8 minutes in the dark prior to reading luminescence (LU) by using the CLARIOstar Multimode Plate Reader. The signal is proportional to the amount of ATP, which is directly proportional to the number of cells present in the culture.
(§2) Luminescence (RLU) values were normalized to DMSO control. Dose response is assessed by non-linear regression and IC50 calculation with the average of technical duplicate of percentage inhibition. IC50 values are reported as absolute IC50 values, being the concentration of test compound at the intersection of the concentration-response curves with T/C=50%. For calculation of mean IC50 values the geometric mean is used.

Test [2] concerns the target T1, Ikaros (IKZF1) (Homo sapiens, UniProt Q13422+Q96SW2).
T1 construct: Ikaros degradation in the H929 cell line was investigated; endogenous in cells; host or cells: H929
In words: Ikaros degradation assay, H929 cell line. The settings on record: H929 cells, 24 h; for % of IKZF1 protein reduction: numeric values; for inhibition at 10 µM / inhibition at 20 µM: NCI-H929, read-out: % of IKZF1 protein reduction. The procedure:
Cells were seeded on 6- or 12-well plates, and the compounds to be tested were added at the desired concentration range. […] After 24 h incubation (37° C., 5% CO2), cells were harvested, washed and cell lysates were prepared using RIPA lysis buffer. The amount of protein was determined via BCA assay, and the appropriate quantity was then loaded on the precast gel for the protein separation. After primary and secondary Ab staining, the membranes were washed and signals developed. The densitometry analysis was implemented to obtain the numeric values used later in the protein level evaluation process.

The target of test [3] is T2, GSPT1 (Homo sapiens, UniProt P15170+Q96SW2).
T2 construct: GSPT1 degradation in the Hep3B cell line was investigated; endogenous in cells; host or cells: Hep3B
In words: GSPT1 degradation assay, Hep3B cell line. As to conditions: HEP3B cells, 24 h, read-out: % of GSPT1 protein reduction. The procedure:
Hep3B cells were maintained in EMEM medium, supplemented with penicillin/streptomycin and 10% Fetal Bovine Serum (FBS). Cells were seeded on 6- or 12-well plates, and the compounds to be tested were added at the desired concentration range. Final DMSO concentration was 0.25%. After 24 h incubation (37° C., 5% CO2), cells were harvested, washed and cell lysates were prepared using RIPA lysis buffer. The amount of protein was determined via BCA assay, and the appropriate quantity was then loaded on the precast gel for the protein separation. After primary and secondary Ab staining, the membranes were washed and signals developed. The densitometry analysis was implemented to obtain the numeric values used later in the protein level evaluation process. Densitometry values were normalized to the loading control and calculated as [%] of the DMSO control.

For test [4], the system named is Hep3B cells. Put plainly: Cell viability CTG assay, Hep3B. The settings on record: Homo sapiens, 72 h, 0.001-50 μM, read-out: Hep3B Geomean absolute IC50 by molecule, 72 H. The procedure:
as §1, §2

Test [5] has as its system KG-1 cells. In words: Cell viability CTG assay, KG-1. The settings on record: Homo sapiens; KG-1, 72 h, 0.001-50 μM; read-out: KG-1 Geomean absolute IC50 by molecule, 72 H. The procedure:
as §1, §2

Counter-ions that a name gives are not always drawn.

T2 sequence (P15170 whole entry): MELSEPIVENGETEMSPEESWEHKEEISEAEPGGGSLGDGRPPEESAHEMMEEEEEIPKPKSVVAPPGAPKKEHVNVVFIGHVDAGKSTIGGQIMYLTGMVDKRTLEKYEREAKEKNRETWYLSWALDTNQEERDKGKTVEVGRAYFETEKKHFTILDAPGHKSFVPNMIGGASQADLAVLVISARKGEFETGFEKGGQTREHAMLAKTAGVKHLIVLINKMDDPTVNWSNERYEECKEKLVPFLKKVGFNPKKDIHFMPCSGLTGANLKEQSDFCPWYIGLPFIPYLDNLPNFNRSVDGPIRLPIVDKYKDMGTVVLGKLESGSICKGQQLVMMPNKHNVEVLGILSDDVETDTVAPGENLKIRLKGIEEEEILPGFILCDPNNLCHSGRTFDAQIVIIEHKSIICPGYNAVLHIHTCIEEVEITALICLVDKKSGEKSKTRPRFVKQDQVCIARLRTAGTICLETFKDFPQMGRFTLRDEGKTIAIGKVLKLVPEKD
T2 sequence (Q96SW2 whole entry): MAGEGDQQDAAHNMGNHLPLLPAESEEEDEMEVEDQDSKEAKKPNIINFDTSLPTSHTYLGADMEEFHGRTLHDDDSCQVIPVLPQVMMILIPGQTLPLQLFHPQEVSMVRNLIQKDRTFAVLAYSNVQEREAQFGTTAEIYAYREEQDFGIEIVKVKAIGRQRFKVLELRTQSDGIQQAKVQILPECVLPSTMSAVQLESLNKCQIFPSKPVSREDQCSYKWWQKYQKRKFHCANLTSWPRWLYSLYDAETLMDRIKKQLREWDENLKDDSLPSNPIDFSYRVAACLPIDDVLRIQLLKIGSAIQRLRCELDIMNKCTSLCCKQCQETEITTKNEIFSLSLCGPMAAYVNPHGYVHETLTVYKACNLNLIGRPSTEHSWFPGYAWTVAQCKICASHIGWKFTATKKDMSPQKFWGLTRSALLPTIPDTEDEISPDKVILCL
T2 sequence (Q16531 whole entry partner): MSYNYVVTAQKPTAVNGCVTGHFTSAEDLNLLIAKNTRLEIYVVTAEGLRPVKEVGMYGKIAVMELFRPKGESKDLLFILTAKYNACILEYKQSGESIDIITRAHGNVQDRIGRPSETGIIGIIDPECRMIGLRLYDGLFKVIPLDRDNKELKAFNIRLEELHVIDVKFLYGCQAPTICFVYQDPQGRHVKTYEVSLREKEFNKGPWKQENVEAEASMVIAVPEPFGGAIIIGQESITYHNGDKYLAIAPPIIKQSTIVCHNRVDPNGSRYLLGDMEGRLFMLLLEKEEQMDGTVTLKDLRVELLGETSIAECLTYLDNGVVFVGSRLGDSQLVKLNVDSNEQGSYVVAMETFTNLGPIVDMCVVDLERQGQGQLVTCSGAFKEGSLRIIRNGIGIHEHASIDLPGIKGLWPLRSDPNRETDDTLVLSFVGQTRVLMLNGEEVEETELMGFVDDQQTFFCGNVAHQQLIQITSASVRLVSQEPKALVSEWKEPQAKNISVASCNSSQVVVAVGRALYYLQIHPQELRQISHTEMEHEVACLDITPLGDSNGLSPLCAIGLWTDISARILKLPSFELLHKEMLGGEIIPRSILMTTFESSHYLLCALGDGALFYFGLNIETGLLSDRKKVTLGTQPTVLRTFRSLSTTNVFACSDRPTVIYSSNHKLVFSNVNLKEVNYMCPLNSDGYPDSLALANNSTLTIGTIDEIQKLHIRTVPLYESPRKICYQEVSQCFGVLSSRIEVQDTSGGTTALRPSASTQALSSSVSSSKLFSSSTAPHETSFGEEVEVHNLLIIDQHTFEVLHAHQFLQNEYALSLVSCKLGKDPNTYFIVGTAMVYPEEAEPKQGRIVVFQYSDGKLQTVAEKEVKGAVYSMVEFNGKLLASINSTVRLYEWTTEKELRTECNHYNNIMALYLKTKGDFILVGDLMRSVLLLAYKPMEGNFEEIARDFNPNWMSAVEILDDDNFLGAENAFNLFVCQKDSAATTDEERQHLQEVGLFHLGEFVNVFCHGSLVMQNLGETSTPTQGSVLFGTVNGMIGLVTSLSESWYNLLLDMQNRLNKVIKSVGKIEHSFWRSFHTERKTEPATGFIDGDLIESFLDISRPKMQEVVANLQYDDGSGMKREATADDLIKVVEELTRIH
T1 sequence (Q13422 whole entry): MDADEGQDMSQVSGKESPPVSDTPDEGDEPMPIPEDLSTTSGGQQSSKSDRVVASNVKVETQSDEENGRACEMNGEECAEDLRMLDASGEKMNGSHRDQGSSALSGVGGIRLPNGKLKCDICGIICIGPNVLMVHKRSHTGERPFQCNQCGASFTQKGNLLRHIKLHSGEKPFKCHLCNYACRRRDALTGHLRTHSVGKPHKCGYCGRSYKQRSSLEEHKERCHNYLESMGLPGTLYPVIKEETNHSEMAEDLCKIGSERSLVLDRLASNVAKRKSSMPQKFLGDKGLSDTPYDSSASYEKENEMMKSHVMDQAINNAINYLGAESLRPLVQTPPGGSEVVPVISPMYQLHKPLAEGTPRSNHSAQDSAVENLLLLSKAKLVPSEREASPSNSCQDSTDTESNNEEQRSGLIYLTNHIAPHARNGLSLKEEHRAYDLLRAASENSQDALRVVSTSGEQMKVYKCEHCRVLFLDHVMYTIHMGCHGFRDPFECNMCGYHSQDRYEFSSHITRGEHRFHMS
T1 sequence (Q96SW2 whole entry): as the sequence (Q96SW2 whole entry) above
T1 sequence (Q16531 whole entry partner): as the sequence (Q16531 whole entry partner) above

As for `Cc1nc2cccc(N)c2c(=O)n1C1CCC(=O)NC1=O` (stereo not drawn) [CC-122, reference compound], in test [1], the IC50 worked out at 72 nM.

For the compound `O=C1CC[C@@H](N2Cc3c(OCc4ccc(CN5CCOCC5)cc4)cccc3C2=O)C(=O)N1` [CC-220, reference compound], the IC50 in test [1] came out at 4 nM.

Consider `Cc1ccc(NC(=O)NCc2ccc3c(c2)CN(C2CCC(=O)NC2=O)C3=O)cc1Cl` (stereo not drawn) [CC-885, reference compound], for which the “% of IKZF1 protein reduction” value in test [2] (10 uM) and in test [2] (20 uM) was more than 99% in each case.

Regarding `Cc1cc2c(cc1CN)CN(C1CCC(=O)NC1=O)C2=O` (stereo not drawn) [Compound 4, 3-[5-(aminomethyl)-6-methyl-1-oxo-2,3-dihydro-1H-isoindol-2-yl]piperidine-2,6-dione], in test [2] (10 uM), the inhibition at 10 µM is 0 to 24%.

`NCc1ccc2c(c1F)CN(C1CCC(=O)NC1=O)C2=O` (stereo not drawn) [Compound 5, 3-[5-(aminomethyl)-4-fluoro-1-oxo-2,3-dihydro-1H-isoindol-2-yl]piperidine-2,6-dione]: the inhibition at 10 µM in test [3] was 80 to 100%; in test [2] (10 uM) it was 0 to 24%. For the same compound, the IC50 in test [4] was 100 to 1000 nM. Also, the “Geomean absolute IC50 by molecule, 72 H” value in test [1] is reported as “Inactive”.

On to `Cc1c(CN)ccc2c1CN(C1CCC(=O)NC1=O)C2=O` (stereo not drawn) [Compound 6, 3-[5-(aminomethyl)-4-methyl-1-oxo-2,3-dihydro-1H-isoindol-2-yl]piperidine-2,6-dione], for which, in test [4], the IC50 is not above 100 nM. The “Geomean absolute IC50 by molecule, 72 H” value in test [1] is reported as “Inactive”.

`NCc1cc(F)c2c(c1)CN(C1CCC(=O)NC1=O)C2=O` (stereo not drawn) [Compound 7, 3-[5-(aminomethyl)-7-fluoro-1-oxo-2,3-dihydro-1H-isoindol-2-yl]piperidine-2,6-dione]: the inhibition at 10 µM in test [3] is 50 to 79%; in test [2] (10 uM) it was 0 to 24%.

Regarding `C[C@H](N)c1ccc2c(c1)CN(C1CCC(=O)NC1=O)C2=O` (stereo partly drawn) [Compound 8, 3-{5-[(1S)-1-aminoethyl]-1-oxo-2,3-dihydro-1H-isoindol-2-yl}piperidine-2,6-dione], in test [2] (20 uM), the inhibition at 20 µM is 0 to 24%.

Consider `C[C@H](NC(=O)OC(C)(C)C)c1ccc2c(c1)CN(C1CCC(=O)NC1=O)C2=O` (stereo partly drawn) [Compound 9, tert-butyl N-[(1S)-1-[2-(2,6-dioxopiperidin-3-yl)-1-oxo-2,3-dihydro-1H-isoindol-5-yl]ethyl]carbamate], for which the inhibition at 20 µM in test [2] (20 uM) was in the range of 0 to 24%.

With `C[C@@H](N)c1ccc2c(c1)CN(C1CCC(=O)NC1=O)C2=O` (stereo partly drawn) [Compound 10, 3-{5-[(1R)-1-aminoethyl]-1-oxo-2,3-dihydro-1H-isoindol-2-yl}piperidine-2,6-dione], the inhibition at 10 µM in test [2] (10 uM) lay in the range of 0 to 24%.

`C[C@@H](NC(=O)OC(C)(C)C)c1ccc2c(c1)CN(C1CCC(=O)NC1=O)C2=O` (stereo partly drawn) [Compound 11, tert-butyl N-[(1R)-1-[2-(2,6-dioxopiperidin-3-yl)-1-oxo-2,3-dihydro-1H-isoindol-5-yl]ethyl]carbamate]: the inhibition at 20 µM in test [2] (20 uM) was in the range of 0 to 24%.

With `CN(C)Cc1ccc2c(c1)CN(C1CCC(=O)NC1=O)C2=O` (stereo not drawn) [Compound 16, 3-(5-((dimethylamino)methyl)-1-oxoisoindolin-2-yl)piperidine-2,6-dione], the inhibition at 10 µM in test [2] (10 uM) lay within 0 to 24%.

`O=C1CCC(N2Cc3cc(CO)ccc3C2=O)C(=O)N1` (stereo not drawn) [Compound 17, 3-(5-(hydroxymethyl)-1-oxoisoindolin-2-yl)piperidine-2,6-dione]: in test [2] (10 uM), the inhibition at 10 µM was in the range of 0 to 24%.

Turning to `CC(=O)OCc1ccccc1C(=O)NCc1ccc2c(c1)CN(C1CCC(=O)NC1=O)C2=O` (stereo not drawn) [Compound 19, [2-({[2-(2,6-dioxopiperidin-3-yl)-1-oxo-2,3-dihydro-1H-isoindol-5-yl]methyl}carbamoyl)phenyl]methyl acetate], the inhibition at 10 µM in test [3] lay in the range of 50 to 79%.

Take `O=C1CCC(N2Cc3cc(CNC(=O)c4ccccc4CO)ccc3C2=O)C(=O)N1` (stereo not drawn) [Compound 20, N-{[2-(2,6-dioxopiperidin-3-yl)-1-oxo-2,3-dihydro-1H-isoindol-5-yl]methyl}-2-(hydroxymethyl)benzamide]: the inhibition at 10 µM in test [3] lay in the range of 50 to 79%.

For `CC(C)(C)OC(=O)NCC(=O)NCc1ccc2c(c1)CN(C1CCC(=O)NC1=O)C2=O` (stereo not drawn) [Compound 26, tert-butyl (2-(((2-(2,6-dioxopiperidin-3-yl)-1-oxoisoindolin-5-yl)methyl)amino)-2-oxoethyl)carbamate], the inhibition at 20 µM in test [2] (20 uM) was 0 to 24%. Moreover, the IC50 in test [4] is not above 100 nM. For the same compound, the “Geomean absolute IC50 by molecule, 72 H” value in test [1] is reported as “Inactive”.

`CC(C)(C)OC(=O)N[C@@H](Cc1cnc[nH]1)C(=O)NCc1ccc2c(c1)CN([C@H]1CCC(=O)NC1=O)C2=O` [Compound 30, tert-butyl ((S)-1-(((2-((S)-2,6-dioxopiperidin-3-yl)-1-oxoisoindolin-5-yl)methyl)amino)-3-(1H-imidazol-4-yl)-1-oxopropan-2-yl)carbamate]: the inhibition at 20 µM in test [2] (20 uM) lay within 0 to 24%.

`CC(C)C(N)C(=O)NCc1ccc2c(c1)CN(C1CCC(=O)NC1=O)C2=O` (stereo not drawn) [Compound 32, 2-amino-N-((2-(2,6-dioxopiperidin-3-yl)-1-oxoisoindolin-5-yl)methyl)-3-methylbutanamide]: the inhibition at 20 µM in test [2] (20 uM) lay in the range of 0 to 24%.

In the case of `CC(C)(C)OC(=O)NC(C)(C)C(=O)NCc1ccc2c(c1)CN(C1CCC(=O)NC1=O)C2=O` (stereo not drawn) [Compound 33, tert-butyl (1-(((2-(2,6-dioxopiperidin-3-yl)-1-oxoisoindolin-5-yl)methyl)amino)-2-methyl-1-oxopropan-2-yl)carbamate], the inhibition at 20 µM in test [2] (20 uM) is 0 to 24%.

Consider `CC(C)(N)C(=O)NCc1ccc2c(c1)CN(C1CCC(=O)NC1=O)C2=O` (stereo not drawn) [Compound 34, 2-amino-N-((2-(2,6-dioxopiperidin-3-yl)-1-oxoisoindolin-5-yl)methyl)-2-methylpropanamide], for which, in test [2] (20 uM), the inhibition at 20 µM was in the range of 0 to 24%.

For `N=C(N)NCCCC(N)C(=O)NCc1ccc2c(c1)CN(C1CCC(=O)NC1=O)C2=O` (stereo not drawn) [Compound 38, 2-amino-N-((2-(2,6-dioxopiperidin-3-yl)-1-oxoisoindolin-5-yl)methyl)-5-guanidinopentanamide], the IC50 in test [4] is 100 to 1000 nM. Besides, the “Geomean absolute IC50 by molecule, 72 H” value in test [1] was “Inactive”.

On to `O=C1CCC(N2Cc3cc(CNC(=O)[C@@H]4CCCN4)ccc3C2=O)C(=O)N1` (stereo partly drawn) [Compound 43, (2S)—N-((2-(2,6-dioxopiperidin-3-yl)-1-oxoisoindolin-5-yl)methyl)pyrrolidine-2-carboxamide hydrochloride], for which the inhibition at 20 µM in test [2] (20 uM) lay in the range of 0 to 24%. For the same compound, the IC50 in test [5] lay within 1000 to 5000 nM; in test [4], 100 to 1000 nM. In addition, in test [1], the “Geomean absolute IC50 by molecule, 72 H” value is “Inactive”.

With `CC1c2cc(CN)ccc2C(=O)N1C1CCC(=O)NC1=O` (stereo not drawn) [Compound 52, 3-[5-(aminomethyl)-3-methyl-1-oxo-2,3-dihydro-1H-isoindol-2-yl]piperidine-2,6-dione], the figures for the inhibition at 10 µM in test [3] and in test [2] (10 uM) were 80 to 100% and 0 to 24%, respectively. Moreover, in test [4], the IC50 is not above 100 nM. Further, the “Geomean absolute IC50 by molecule, 72 H” value in test [1] is on record as “Inactive”.

As to `O=C1CCC(N2Cc3cc(C(=O)O)ccc3C2=O)C(=O)N1` (stereo not drawn) [Compound 53], the inhibition at 1 µM in test [3] (1 uM) lay within 50 to 79%. Further, the inhibition at 10 µM in test [3] lay in the range of 80 to 100%.

Consider `O=C1CCC(N2Cc3cc(C(=O)O)c(F)cc3C2=O)C(=O)N1` (stereo not drawn) [Compound 54, 2-(2,6-dioxopiperidin-3-yl)-6-fluoro-1-oxo-2,3-dihydro-1H-isoindole-5-carboxylic acid], for which the figures for the inhibition at 10 µM in test [3] and in test [2] (10 uM) were 80 to 100% and 0 to 24%, respectively.
